According to patent US20050282159A1, “Rpob gene of streptomyces, primer specific to streptomyces, and identification method of streptomyces having rifampin resistance or sensitivity by using the same” (priority 2001, published 2005):

What was measured:
[1] = test system: S. antibioticus KCTC 1137; conditions: TCG (TCC) genotype
Method: (§1) The primer sets of SEQ ID NOs: 1 and 2 were used to amplify rpoB genes of 60 strains, and nucleotides of the […] products were analyzed with an automatic sequencer. SRPOF1 as a forward primer and SRPOR1 as a backward primer were used.

[2] = test system: S. candidus KCTC 9020; conditions: TCG (TCC) genotype
Method: as §1

[3] = test system: S. cellulose KCTC 9703; conditions: AAC genotype
Method: as §1

[4] = test system: S. chivaensis KCTC 9786; conditions: AAC genotype
Method: as §1

[5] = test system: S. chromogenes KCCM 40727; conditions: TCG (TCC) genotype
Method: as §1

[6] = test system: S. cinnamoneus KCCM 40572; conditions: TCG (TCC) genotype
Method: as §1

[7] = test system: S. coerulescens KCCM 40508; conditions: TCG (TCC) genotype
Method: as §1

[8] = test system: S. cyaneofuscatus KCCM 40517; conditions: TCG (TCC) genotype
Method: as §1

[9] = test system: S. erumpens KCTC 9729; conditions: TCG (TCC) genotype
Method: as §1

[10] = test system: S. eurythermus KCTC 9731; conditions: TCG (TCC) genotype
Method: as §1

[11] = test system: S. flavovirens KCCM 40165; conditions: TCG (TCC) genotype
Method: as §1

[12] = test system: S. griseoruber KCCM 40658; conditions: TCG (TCC) genotype
Method: as §1

[13] = test system: S. halstedii KCCM 40613; conditions: TCG (TCC) genotype
Method: as §1

[14] = test system: S. kifunensis KCTC 9734; conditions: TCG (TCC) genotype
Method: as §1

## CO[C@H]1/C=C/O[C@@]2(C)Oc3c(C)c(O)c4c(O)c(c(/C=N/N5CCN(C)CC5)c(O)c4c3C2=O)NC(=O)/C(C)=C\C=C\[C@H](C)[C@H](O)[C@@H](C)[C@@H](O)[C@@H](C)[C@H](OC(C)=O)[C@@H]1C [rifampin]
[1]
  genotype (rifampin-resistant or -sensitive strain): −
[2]
  genotype (rifampin-resistant or -sensitive strain): −
[3]
  genotype (rifampin-resistant or -sensitive strain): +
[4]
  genotype (rifampin-resistant or -sensitive strain): +
[5]
  genotype (rifampin-resistant or -sensitive strain): −
[6]
  genotype (rifampin-resistant or -sensitive strain): −
[7]
  genotype (rifampin-resistant or -sensitive strain): −
[8]
  genotype (rifampin-resistant or -sensitive strain): −
[9]
  genotype (rifampin-resistant or -sensitive strain): −
[10]
  genotype (rifampin-resistant or -sensitive strain): −
[11]
  genotype (rifampin-resistant or -sensitive strain): −
[12]
  genotype (rifampin-resistant or -sensitive strain): −
[13]
  genotype (rifampin-resistant or -sensitive strain): −
[14]
  genotype (rifampin-resistant or -sensitive strain): −
